What all share (format): cell-based
Assay [1] deals with Streptococcus pneumoniae Park 1. The assay is described as follows: In vitro antibacterial activity, standard agar-dilution assay. To be noted: PARK1.
The subject of assay [2] is Staphylococcus aureus X400. The experiment in a line: microbe, parasite or virus in culture.
The test system of assay [3] is Staphylococcus aureus X1.1. The experiment in a line: In vitro antibacterial activity, standard agar-dilution assay.
The subject of assay [4] is Escherichia coli EC14. Described as above.
Assay [5] deals with Haemophilus influenzae C.L. The description is as above.
For assay [6], the system named is Haemophilus influenzae 76. Described as above.
Assay [7] relates to Staphylococcus aureus S13E. The experiment in a line: microbe, parasite or virus in culture.
In assay [8] the test system is Escherichia coli N10. The experiment in a line: In vitro antibacterial activity, standard agar-dilution assay.
The test system of assay [9] is Streptococcus sp group D 2041. The assay is described as above. To be noted: GROUPD2041.
Assay [10] has as its system Staphylococcus aureus V41. The description is as above.
Assay [11] relates to Klebsiella pneumoniae X68. Described as above.
Assay [12] concerns Escherichia coli TEM. The description is as above.
Assay [13] has as its system Trichophyton mentagrophytes. The assay is described as follows: In vitro antifungal activity, standard disc-plate assay.
Assay [14] has as its system Staphylococcus epidermidis EPI1. The assay is described as follows: In vitro antibacterial activity, standard agar-dilution assay.
Assay [15] deals with Staphylococcus epidermidis 222. Described as above.
Assay [16] deals with Proteus morganii PR15. Described as above. Particulars: Morganella morganii.
Assay [17] relates to Klebsiella pneumoniae KAE. Described as above.
In assay [18] the test system is Streptococcus faecium ATCC 9790. The assay is described as above. To be noted: Enterococcus faecium, ATCC9790.
The test system of assay [19] is Shigella sonnei N9. Described as above.
Assay [20] relates to Klebsiella pneumoniae X26. The description is as above.
The subject of assay [21] is Salmonella sp. X514. The assay is described as above.
Assay [22] deals with Candida albicans. The experiment in a line: In vitro antifungal activity, standard disc-plate assay.
Assay [23] has as its system Streptococcus pyogenes C203. The experiment in a line: In vitro antibacterial activity, standard agar-dilution assay.
The subject of assay [24] is Acinetobacter calcoaceticus AC12. The assay is described as above.
Setting [25] is: Streptococcus pneumoniae Park 1, agar dilution, read-out: MIC.
The mark [26] stands for this setting: Staphylococcus aureus X1.1, agar dilution, read-out: MIC.
Where [27] appears, read: Escherichia coli EC14, agar dilution, read-out: MIC.
[28] abbreviates: Haemophilus influenzae C.L., agar dilution, read-out: MIC.
The mark [29] stands for this setting: Haemophilus influenzae 76, agar dilution, read-out: MIC.
Where [30] appears, read: Escherichia coli N10, agar dilution, read-out: MIC.
[31] abbreviates: Streptococcus sp group D 2041, agar dilution, read-out: MIC.
Setting [32] is: Staphylococcus aureus V41, agar dilution, read-out: MIC.
The mark [33] stands for this setting: Klebsiella pneumoniae X68, agar dilution, read-out: MIC.
Where [34] appears, read: disc-plate assay, read-out: MIC.
Setting [35] is: Staphylococcus epidermidis EPI1, agar dilution, read-out: MIC.
[36] abbreviates: Staphylococcus epidermidis 222, agar dilution, read-out: MIC.
Setting [37] is: Proteus morganii PR15, agar dilution, read-out: MIC.
[38] abbreviates: Klebsiella pneumoniae KAE, agar dilution, read-out: MIC.
Setting [39] is: Streptococcus faecium ATCC 9790, agar dilution, read-out: MIC.
The mark [40] stands for this setting: Shigella sonnei N9, agar dilution, read-out: MIC.
[41] abbreviates: Klebsiella pneumoniae X26, agar dilution, read-out: MIC.
Where [42] appears, read: Salmonella sp. X514, agar dilution, read-out: MIC.
Where [43] appears, read: Streptococcus pyogenes C203, agar dilution, read-out: MIC.
The mark [44] stands for this setting: Acinetobacter calcoaceticus AC12, agar dilution, read-out: MIC.

Converted amounts (≈) assume the structure as drawn. Read-outs that look alike come from different tables or passages of the source. Some results are limits rather than exact numbers.

On to `C=C[C@@]1(C)[C@H](Cl)C[C@H]2[C@H](c3c[nH]c4cccc(c34)C2(C)C)[C@H]1N=C=S` [Compound 2, Hapalindole B], for which the MIC in [1] (setting [25]) is 64 µg/mL (≈ 173 µM); in assay [2] it was 2 µg/mL (≈ 5.39 µM); in assay [3] (setting [26]), 2 µg/mL (≈ 5.39 µM); in assay [4] (setting [27]), greater than 64 µg/mL; in assay [5] (setting [28]), greater than 64 µg/mL; in [6] (setting [29]) it was greater than 64 µg/mL. Besides, the MIC in assay [7] was 2 µg/mL (≈ 5.39 µM); in [8] (setting [30]) it was greater than 64 µg/mL; in assay [9] (setting [31]), 8 µg/mL (≈ 21.6 µM); in assay [10] (setting [32]), 2 µg/mL (≈ 5.39 µM); in assay [11] (setting [33]), greater than 64 µg/mL; in assay [12], greater than 64 µg/mL. For the same molecule, the MIC in assay [13] (setting [34]) is greater than 20 µg/mL; in assay [14] (setting [35]), 2 µg/mL (≈ 5.39 µM); in assay [15] (setting [36]), 2 µg/mL (≈ 5.39 µM); in assay [16] (setting [37]), greater than 64 µg/mL; in assay [17] (setting [38]) it was greater than 64 µg/mL; in assay [18] (setting [39]) it was 4 µg/mL (≈ 10.8 µM). The MIC is greater than 64 µg/mL in assay [19] (setting [40]); greater than 64 µg/mL in assay [20] (setting [41]); greater than 64 µg/mL in [21] (setting [42]); greater than 20 µg/mL in assay [22] (setting [34]); 64 µg/mL (≈ 173 µM) in [23] (setting [43]); greater than 64 µg/mL in assay [24] (setting [44]).

With `[C-]#[N+][C@@H]1[C@H](c2c[nH]c3ccccc23)[C@@H](C(=C)C)C[C@@H](Cl)[C@]1(C)C=C` [Compound 5, Hapalindole E], the MIC in assay [1] (Streptococcus pneumoniae) was greater than 64 µg/mL; in [2], 4 µg/mL (≈ 11.8 µM); in [3] (Staphylococcus aureus, X1.1), 4 µg/mL (≈ 11.8 µM); in assay [4] (Escherichia coli, EC14), 16 µg/mL (≈ 47.2 µM); in assay [5] (Haemophilus influenzae), 4 µg/mL (≈ 11.8 µM); in assay [6] (Haemophilus influenzae, 76) it was 4 µg/mL (≈ 11.8 µM). The MIC in assay [7] is 2 µg/mL (≈ 5.9 µM); in [8] (Escherichia coli, N10) it was 16 µg/mL (≈ 47.2 µM); in assay [9] (Streptococcus) it was greater than 64 µg/mL; in [10] (Staphylococcus aureus, V41), 2 µg/mL (≈ 5.9 µM); in [11] (Klebsiella pneumoniae, X68), greater than 64 µg/mL; in assay [12], greater than 64 µg/mL. The MIC in assay [13] is 0.625 µg/mL (≈ 1.84 µM); in assay [14] (Staphylococcus epidermidis, EPI1), 2 µg/mL (≈ 5.9 µM); in assay [15] (Staphylococcus epidermidis, 222) it was 2 µg/mL (≈ 5.9 µM); in [16] (PR15), 32 µg/mL (≈ 94.4 µM); in [17] (Klebsiella pneumoniae), greater than 64 µg/mL; in assay [18], 64 µg/mL (≈ 189 µM). Further, the MIC was greater than 64 µg/mL in assay [19] (Shigella sonnei, N9); greater than 64 µg/mL in [20] (Klebsiella pneumoniae, X26); greater than 64 µg/mL in assay [21] (Salmonella, SP.X514); 0.312 µg/mL (≈ 0.921 µM) in [22]; greater than 64 µg/mL in [23] (Streptococcus pyogenes, C203); greater than 64 µg/mL in assay [24] (Acinetobacter calcoaceticus, AC12).

As to `[C-]#[N+][C@@H]1[C@H](c2c[nH]c3ccccc23)[C@@H](C(=C)C)CC[C@]1(C)C=C` [Compound 3, Hapalindole C], the MIC in assay [1] (setting [25]) was greater than 64 µg/mL; in assay [2], 16 µg/mL (≈ 52.6 µM); in assay [3] (setting [26]), 16 µg/mL (≈ 52.6 µM); in assay [4] (setting [27]) it was greater than 64 µg/mL; in assay [5] (setting [28]) it was 16 µg/mL (≈ 52.6 µM); in assay [6] (setting [29]) it was 16 µg/mL (≈ 52.6 µM). Moreover, the MIC is 8 µg/mL (≈ 26.3 µM) in assay [7]; greater than 64 µg/mL in assay [8] (setting [30]); greater than 64 µg/mL in [9] (setting [31]); 16 µg/mL (≈ 52.6 µM) in [10] (setting [32]); greater than 64 µg/mL in assay [11] (setting [33]); 64 µg/mL (≈ 210 µM) in assay [12]. The MIC in [13] (setting [34]) was 0.625 µg/mL (≈ 2.05 µM); in [14] (setting [35]), 8 µg/mL (≈ 26.3 µM); in [15] (setting [36]), 16 µg/mL (≈ 52.6 µM); in [16] (setting [37]), greater than 64 µg/mL; in assay [17] (setting [38]), greater than 64 µg/mL; in assay [18] (setting [39]), greater than 64 µg/mL. Further, the MIC was greater than 64 µg/mL in [19] (setting [40]); greater than 64 µg/mL in [20] (setting [41]); greater than 64 µg/mL in assay [21] (setting [42]); 0.625 µg/mL (≈ 2.05 µM) in assay [22] (setting [34]); greater than 64 µg/mL in [23] (setting [43]); 2 µg/mL (≈ 6.57 µM) in assay [24] (setting [44]).

As for `C=C[C@@]1(C)CC[C@H](C(=C)C)[C@@H](c2c[nH]c3ccccc23)[C@H]1N=C=S` [Compound 4, Hapalindole D], the MIC in assay [1] (setting [25]) was greater than 64 µg/mL; in [2] it was 8 µg/mL (≈ 23.8 µM); in assay [3] (setting [26]) it was 4 µg/mL (≈ 11.9 µM); in assay [4] (setting [27]), greater than 64 µg/mL; in [5] (setting [28]) it was greater than 64 µg/mL; in [6] (setting [29]), greater than 64 µg/mL. The MIC in [7] is 4 µg/mL (≈ 11.9 µM); in assay [8] (setting [30]) it was greater than 64 µg/mL; in [9] (setting [31]) it was 8 µg/mL (≈ 23.8 µM); in [10] (setting [32]), 4 µg/mL (≈ 11.9 µM); in assay [11] (setting [33]), greater than 64 µg/mL; in assay [12], greater than 64 µg/mL. The MIC in [13] (setting [34]) was greater than 20 µg/mL; in assay [14] (setting [35]), 8 µg/mL (≈ 23.8 µM); in assay [15] (setting [36]), 4 µg/mL (≈ 11.9 µM); in assay [16] (setting [37]), greater than 64 µg/mL; in assay [17] (setting [38]) it was greater than 64 µg/mL; in assay [18] (setting [39]) it was 8 µg/mL (≈ 23.8 µM). Moreover, the MIC in [19] (setting [40]) was greater than 64 µg/mL; in [20] (setting [41]), greater than 64 µg/mL; in assay [21] (setting [42]), greater than 64 µg/mL; in [22] (setting [34]), greater than 20 µg/mL; in [23] (setting [43]), greater than 64 µg/mL; in assay [24] (setting [44]), greater than 64 µg/mL.

(Values after US4755610A, “Hapalindoles” (priority 1986, dated 1988).)
